Activity calls are given as the source filed them. The calls are words filed in the database; no cut-off is given here.
Tests used:
[1] = target: T1, Lysine-specific histone demethylase 1A (Homo sapiens, UniProt O60341); test: Inhibition of recombinant LSD1 (unknown origin) preincubated for 10 mins in presence of H3K4Me2 measured after 30 mins by measuring fluorescence intensity by fluorescence based microplate reader
MGC-803 = test: Antiproliferative activity against human MGC-803 cells incubated for 48 hrs measured by MTT assay; format: functional, cell-based; conditions: MGC-803, 48 h
KYSE-450 = test: Antiproliferative activity against human KYSE-450 cells incubated for 48 hrs measured by MTT assay; format: functional, cell-based; conditions: KYSE-450, 48 h
HCT-116 = test: Antiproliferative activity against human HCT-116 cells incubated for 48 hrs measured by MTT assay; format: functional, cell-based; conditions: HCT-116, 48 h
[2] = target: T1, Lysine-specific histone demethylase 1A; test: Inhibition of LSD1 in human MGC-803 cells assessed as increase in methylation of H3K4 at 24 micromol/L; format: cell-based; conditions: dose 24.0 µmol/L
[3] = target: T1, Lysine-specific histone demethylase 1A; test: Inhibition of LSD1 in human MGC-803 cells assessed as increase in methylation of H3K9 at 24 micromol/L; format: cell-based; conditions: dose 24.0 µmol/L

SMILES: CN1CCN(C(=O)c2cccc(CN[C@@H]3C[C@H]3c3ccc(F)c(F)c3)c2)CC1
- IC50 [1]: 0.222 µM

SMILES: NCC1CCN(C(=O)c2cccc(CN[C@@H]3C[C@H]3c3ccc(F)c(F)c3)c2)CC1
- IC50 [1]: 0.181 µM
- IC50 (MGC-803): > 128 µM
- IC50 (KYSE-450): > 128 µM
- IC50 (HCT-116): > 128 µM

SMILES: O=C(Nc1ccc(N2CCOCC2)c(F)c1)c1cccc(CN[C@@H]2C[C@H]2c2ccc(F)c(F)c2)c1
- IC50 [1]: 0.249 µM

SMILES: CN1CCN(c2ccc(NC(=O)c3cccc(CN[C@@H]4C[C@H]4c4ccc(F)c(F)c4)c3)cc2)CC1
- IC50 [1]: 0.249 µM

SMILES: O=C(c1cccc(CN[C@@H]2C[C@H]2c2ccc(F)c(F)c2)c1)N1CCc2ccccc21
- IC50 [1]: 0.0261 µM
- IC50 (MGC-803): 33.7 µM
- IC50 (KYSE-450): 51.5 µM
- IC50 (HCT-116): 50.1 µM

SMILES: O=C(NCC1CCNCC1)c1cccc(CN[C@@H]2C[C@H]2c2ccc(F)c(F)c2)c1
- IC50 [1]: 0.173 µM

SMILES: O=C(Nc1cccc(S(=O)(=O)N2CCOCC2)c1)c1cccc(CN[C@@H]2C[C@H]2c2ccc(F)c(F)c2)c1
- IC50 [1]: 0.0326 µM
- IC50 (MGC-803): 29.7 µM
- IC50 (KYSE-450): 38.7 µM
- IC50 (HCT-116): 36.1 µM

SMILES: CN1CCN(S(=O)(=O)c2cccc(NC(=O)c3cccc(CN[C@@H]4C[C@H]4c4ccc(F)c(F)c4)c3)c2)CC1
- IC50 [1]: 0.325 µM

SMILES: O=C(c1cccc(CN[C@@H]2C[C@H]2c2ccc(F)c(F)c2)c1)N1CC2CCCCC2C1 (stereo not given in full)
- IC50 [1]: 0.058 µM
- IC50 (MGC-803): 51.2 µM
- IC50 (KYSE-450): 68.9 µM
- IC50 (HCT-116): 55.7 µM

SMILES: COCCNC(=O)c1cccc(CN[C@@H]2C[C@H]2c2ccc(F)c(F)c2)c1
- IC50 [1]: 0.231 µM

SMILES: NC(=O)C1CCN(C(=O)c2cccc(CN[C@@H]3C[C@H]3c3ccc(F)c(F)c3)c2)CC1
- IC50 [1]: 0.108 µM
- IC50 (MGC-803): > 128 µM
- IC50 (KYSE-450): > 128 µM
- IC50 (HCT-116): > 128 µM

SMILES: O=C(O)c1cccc(CN[C@@H]2C[C@H]2c2ccc(F)c(F)c2)c1
- IC50 [1]: 0.517 µM

SMILES: NC(=O)CNC(=O)c1cccc(CN[C@@H]2C[C@H]2c2ccc(F)c(F)c2)c1
- IC50 [1]: 0.108 µM

SMILES: O=C(O)c1cccc(NC(=O)c2cccc(CN[C@@H]3C[C@H]3c3ccc(F)c(F)c3)c2)c1
- IC50 [1]: 0.479 µM

SMILES: c1ccc([C@@H]2C[C@H]2NC2CCNCC2)cc1
- IC50 (MGC-803): > 64 µM
- IC50 (KYSE-450): > 64 µM
- IC50 (HCT-116): > 64 µM
- inhibition [2]: Active
- inhibition [3]: Active

SMILES: NC1CCN(C(=O)c2cccc(CN[C@@H]3C[C@H]3c3ccc(F)c(F)c3)c2)CC1
- IC50 [1]: 0.668 µM

SMILES: Cc1ccc(NC(=O)c2cccc(CN[C@@H]3C[C@H]3c3ccc(F)c(F)c3)c2)cc1
- IC50 [1]: 0.0364 µM

SMILES: COC(=O)c1cccc(NC(=O)c2cccc(CN[C@@H]3C[C@H]3c3ccc(F)c(F)c3)c2)c1
- IC50 [1]: 0.0321 µM
- IC50 (MGC-803): 50.1 µM
- IC50 (KYSE-450): 67.9 µM
- IC50 (HCT-116): 45.7 µM

SMILES: CCN1CCN(c2ccc(NC(=O)c3cccc(CN[C@@H]4C[C@H]4c4ccc(F)c(F)c4)c3)cc2)CC1
- IC50 [1]: 0.0428 µM
- IC50 (MGC-803): 28 µM
- IC50 (KYSE-450): 24.8 µM
- IC50 (HCT-116): 28.1 µM

SMILES: O=C(c1cccc(CN[C@@H]2C[C@H]2c2ccc(F)c(F)c2)c1)N1CCC(O)CC1
- IC50 [1]: 0.141 µM

SMILES: O=C(c1cccc(CN[C@@H]2C[C@H]2c2ccc(F)c(F)c2)c1)N1CCN(c2ccccc2)CC1
- IC50 [1]: 0.0563 µM

SMILES: CN(Cc1ccccc1)C(=O)c1cccc(CN[C@@H]2C[C@H]2c2ccc(F)c(F)c2)c1
- IC50 [1]: 0.0421 µM

SMILES: CCCCNC(=O)c1cccc(CN[C@@H]2C[C@H]2c2ccc(F)c(F)c2)c1
- IC50 [1]: 0.203 µM

SMILES: O=C(NC1CC(F)(F)C1)c1cccc(CN[C@@H]2C[C@H]2c2ccc(F)c(F)c2)c1
- IC50 [1]: 0.115 µM
- IC50 (MGC-803): 54.9 µM
- IC50 (KYSE-450): 64.5 µM
- IC50 (HCT-116): 58.2 µM

SMILES: O=C(O)c1ccc(CN2CCC(CN[C@@H]3C[C@H]3c3ccccc3)CC2)cc1 [GSK2879552]
- IC50 (MGC-803): > 64 µM
- IC50 (KYSE-450): > 64 µM
- IC50 (HCT-116): > 64 µM

Source: ChEMBL document CHEMBL5346906, “Discovery of novel tranylcypromine-based derivatives as LSD1 inhibitors for gastric cancer treatment” (Eur J Med Chem, 2023)
